Laboratory results as given in patent publication US10889569B2, “Condensed ring group azacyclobutyl triazole derivative, preparation method therefor and use thereof in medicine” (Jiangsu Hengrui Medicine Co., Ltd., priority 2016, dated 2021).

Tests used:
human V1aR = human V1aR (Homo sapiens (Human), UniProt P37288); test: Inhibition activity on human V1aR (Fluo-4 calcium assay, HEK293/human V1aR stably transfected cells); format: cell-based; details: vasopressin 3 nM
Procedure: The inhibition effect of the compounds of the present invention on the activity of human V1 aR protein expressed in HEK293/human V1aR stably transfected cells was determined by the following experimental method:
The pcDNA3.1-V1aR plasmid was transferred into HEK293 cells with the Lipofectamine® 3000 transfection reagent; G418 was added on the next day to screen, and monoclonal cell lines were selected.
(§1) HEK293/human V1aR stably transfected cells were inoculated in a 96-well plate with an inoculation density of 25,000 cells/well one day in advance. On the next day, a loading buffer containing Fluo-4 dye was formulated using the reagents in the Fluo-4 NW calcium assay kit, and the culture medium was then removed; 100 μl of the loading buffer containing Fluo-4 dye were added to each well, and the plate was incubated at 37° C. for 30 minutes. After that, the plate was moved to room temperature and equilibrated for 10 minutes. The compounds were formulated at 10^6, 10^5, 10^4, 10^3, 10^2 and 10^1 nM. 1 μl of the compounds in each concentration was added to each well, and the plate was incubated at room temperature for 10 minutes. 50 μl of vasopressin polypeptide (3 nM) were automatically added by the machine, and the values were immediately detected at 494/516 nM by the flexstation 3 microplate reader. IC50 values of the compounds were calculated by Graphpad prism software using fluorescence signals corresponding to different concentrations.
The inhibition activity of the compounds of the present invention on human V1aR was determined by the above test, and the obtained IC50 values are shown in Table 2.

human OTR = human OTR (Homo sapiens, UniProt P30559); test: Inhibition activity on human OTR (Fluo-4 calcium assay, HEK293/human OTR stably transfected cells); format: cell-based; details: oxytocin 3 nM
Procedure: The inhibition effect of the compounds of the present invention on the activity of human OTR protein expressed in HEK293/human OTR stably transfected cells was determined by the following experimental method:
The pcDNA3.1-hOTR plasmid was transferred into HEK293 cells with the Lipofectamine® 3000 transfection reagent; G418 was added on the next day to screen, and monoclonal cell lines were selected.
as §1, with “OTR” for “V1aR”, “oxytocin” for “vasopressin”
The inhibition activity of the compounds of the present invention on human OTR was determined by the above test, and the obtained IC50 values are shown in Table 1.

[1] = Pharmacokinetics assay in rats after intragastrical administration; format: in vivo, SD rats; details: Sprague-Dawley, rat, plasma, po, 30 mg/kg, intragastric, male rats; for Vd/F: read-out: Apparent distribution volume Vz/F; for AUC: read-out: Area under curve AUC; for CL/F: read-out: Clearance CLz/F; for half-life: read-out: Half-life T1/2 (converted); for Cmax: read-out: Plasma concentration Cmax; for MRT: read-out: Residence time MRT
Procedure: Male SD rats were used as test animals. The drug concentration in plasma at different time points was determined by LC/MS/MS method after intragastrical administration of the compounds of Examples 2, 17, 34, 37, 38, 39 and 43 to rats. The pharmacokinetic behavior of the compounds of the present invention was studied and evaluated in rats.
Twenty-one healthy adult male Sprague-Dawley (SD) rats were purchased from Shanghai Jiesijie Laboratory Animal Co., LTD, with Certificate No.: SCXK (Shanghai) 2013-0006, and equally divided into 7 groups (3 rats per group).
A certain amount of the test compound was weighed, and added with 2.5% by volume of DMSO and 97.5% by volume of 10% solutol HS-15 to formulate a […] colorless, clear and transparent solution.
After an overnight fast, SD rats were administered intragastrically the test compounds at an administration dosage of 30.0 mg/kg and an administration volume of 10.0 mL/kg.
The rats were intragastrically administered the compounds of Examples 2, 17, 34, 37, 38, 39 and 43. 0.2 mL of blood was taken from the orbital sinus before administration and at 0.5, 1.0, 2.0, 4.0, 6.0, 8.0, 11.0 and 24.0 hours after administration. The samples were stored in heparinized tubes, and centrifuged for 10 minutes at 4° C. at 3500 rpm to separate the plasma. The plasma samples were stored at −20° C. The rats were fed 2 hours after administration.
The content of the test compounds in the plasma of rats after intragastrical administration of the test compounds at different concentrations was determined: 50 μL of rat plasma at each time after administration was taken, added with 50 μL of the internal standard solution of camptothecin (100 ng/mL) and 150 μL of acetonitrile, vortex-mixed for 5 minutes, and centrifuged for 10 minutes (4000 rpm). 3 μL of the supernatant was taken from the plasma samples for LC/MS/MS analysis.

Sequence of human V1aR (P37288 whole entry): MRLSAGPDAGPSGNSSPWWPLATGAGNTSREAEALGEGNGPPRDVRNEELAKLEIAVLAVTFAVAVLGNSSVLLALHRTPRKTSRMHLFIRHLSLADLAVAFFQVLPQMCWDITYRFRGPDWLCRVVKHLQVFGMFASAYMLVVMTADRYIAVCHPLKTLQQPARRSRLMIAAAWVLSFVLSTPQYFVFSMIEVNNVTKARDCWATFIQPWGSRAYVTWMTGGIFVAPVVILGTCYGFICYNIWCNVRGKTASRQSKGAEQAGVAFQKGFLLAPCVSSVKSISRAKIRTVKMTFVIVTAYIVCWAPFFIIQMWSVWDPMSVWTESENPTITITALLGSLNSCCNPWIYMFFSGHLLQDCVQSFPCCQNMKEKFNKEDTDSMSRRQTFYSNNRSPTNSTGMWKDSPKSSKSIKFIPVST

IC50 (human V1aR)	IC50 (human OTR)	Structure (SMILES)	other results
4700 nM	–	COc1ccc(-n2c(C)nnc2N2CC(n3cc(C)c4cc(F)ccc43)C2)cn1 [Example 6, 5-Fluoro-1-(1-(4-(6-methoxypyridin-3-yl)-5-methyl-4H-1,2,4-triazol-3-yl)azetidin-3-yl)-3-methyl-1H-indole]	–
–	8 nM	COc1ccc(-n2c(COC(F)F)nnc2N2CC(n3cc(C)c4cc(F)ccc43)C2)cn1 [Example 34, 1-(1-(5-((Difluoromethoxy)methyl)-4-(6-methoxypyridin-3-yl)-4H-1,2,4-triazol-3-yl)azetidin-3-yl)-5-fluoro-3-methyl-1H-indole]	Vd/F [1]: 17.8 ± 3.33 L/kg; AUC [1]: 5330 ± 981 ng·h/mL; CL/F [1]: 95.8 ± 16 mL/min/kg; half-life [1]: 2.16 ± 0.345 h; Cmax [1]: 1070 ± 252 ng/mL; MRT [1]: 3.84 ± 1.08 h
6700 nM	–	COCc1nnc(N2CC(n3cc(C(F)(F)F)c4cc(F)ccc43)C2)n1-c1ccc(OC)nc1 [Example 7, 5-Fluoro-1-(1-(5-(methoxymethyl)-4-(6-methoxypyridin-3-yl)-4H-1,2,4-triazol-3-yl)azetidin-3-yl)-3-(trifluoromethyl)-1H-indole]	–
2000 nM	6 nM	COc1ccc(-n2c(N3CC(N4CCCc5cc(F)ccc54)C3)nnc2C(F)(F)F)cn1 [Example 39, 6-Fluoro-1-(1-(4-(6-methoxypyridin-3-yl)-5-(trifluoromethyl)-4H-1,2,4-triazol-3-yl)azetidin-3-yl)-1,2,3,4-tetrahydroquinoline]	Vd/F [1]: 35 ± 3.01 L/kg; AUC [1]: 3830 ± 83.7 ng·h/mL; CL/F [1]: 131 ± 2.85 mL/min/kg; half-life [1]: 3.09 ± 0.199 h; Cmax [1]: 1200 ± 68.5 ng/mL; MRT [1]: 3.61 ± 0.022 h
2300 nM	–	CCOCc1nnc(N2CC(n3cc(Cl)c4cc(F)ccc43)C2)n1-c1ccc(OC)nc1 [Example 4, 3-Chloro-1-(1-(5-(ethoxymethyl)-4-(6-methoxypyridin-3-yl)-4H-1,2,4-triazol-3-yl)azetidin-3-yl)-5-fluoro-1H-indole]	–
2100 nM	124 nM	COC(=O)NCc1nnc(N2CC(N3CCCc4cc(F)ccc43)C2)n1-c1ccc(OC)nc1 [Example 36, Methyl ((5-(3-(6-fluoro-3,4-dihydroquinolin-1(2H)-yl)azetidin-1-yl)-4-(6-methoxypyridin-3-yl)-4H-1,2,4-triazol-3-yl)methyl)carbamate]	–
–	23 nM	COCc1nnc(N2CC(n3ccc4cc(F)ccc43)C2)n1-c1ccc(OC)nc1 [Example 25, 5-Fluoro-1-(1-(5-(methoxymethyl)-4-(6-methoxypyridin-3-yl)-4H-1,2,4-triazol-3-yl)azetidin-3-yl)-1H-indole]	–
9000 nM	150 nM	COc1ccc(-n2c(CO)nnc2N2CC(c3cccc4cc(F)ccc34)C2)cn1 [Example 41, (5-(3-(6-Fluoronaphthalen-1-yl)azetidin-1-yl)-4-(6-methoxypyridin-3-yl)-4H-1,2,4-triazol-3-yl)methanol]	–
4500 nM	23 nM	COCc1nnc(N2CC(N3CCC(C)(C)c4cc(F)ccc43)C2)n1-c1ccc(OC)nc1 [Example 42, 6-Fluoro-1-(1-(5-(methoxymethyl)-4-(6-methoxypyridin-3-yl)-4H-1,2,4-triazol-3-yl)azetidin-3-yl)-4,4-dimethyl-1,2,3,4-tetrahydroquinoline]	–

The next lines start with the molecule.

Structure (SMILES)	IC50 (human V1aR)	IC50 (human OTR)	other results
COc1ccc(-n2c(C)nnc2N2CC(N3CCCc4c(F)cccc43)C2)cn1 [Example 20, 5-Fluoro-1-(1-(4-(6-methoxypyridin-3-yl)-5-methyl-4H-1,2,4-triazol-3-yl)azetidin-3-yl)-1,2,3,4-tetrahydroquinoline]	3100 nM	104 nM	–
COCc1nnc(N2CC(n3cc(C#N)c4cc(F)ccc43)C2)n1-c1ccc(OC)nc1 [Example 13, 5-Fluoro-1-(1-(5-(methoxymethyl)-4-(6-methoxypyridin-3-yl)-4H-1,2,4-triazol-3-yl)azetidin-3-yl)-1H-indole-3-carbonitrile]	11900 nM	–	–
COc1ccc(-n2c(C(F)F)nnc2N2CC(N3CCOc4cc(F)ccc43)C2)cn1 [Example 35, 4-(1-(5-(Difluoromethyl)-4-(6-methoxypyridin-3-yl)-4H-1,2,4-triazol-3-yl)azetidin-3-yl)-7-fluoro-3,4-dihydro-2H-benzo[b][1,4]oxazine]	14100 nM	181 nM	–
COCc1nnc(N2CC(N3CCOc4c(F)cccc43)C2)n1-c1ccc(OC)nc1 [Example 22, 8-Fluoro-4-(1-(5-(methoxymethyl)-4-(6-methoxypyridin-3-yl)-4H-1,2,4-triazol-3-yl)azetidin-3-yl)-3,4-dihydro-2H-benzo[b][1,4]oxazine]	7500 nM	177 nM	–
COc1ccc(-n2c(N3CC(N4CCOc5cc(F)ccc54)C3)nnc2C(F)(F)F)cn1 [Example 43, 7-Fluoro-4-(1-(4-(6-methoxypyridin-3-yl)-5-(trifluoromethyl)-4H-1,2,4-triazol-3-yl)azetidin-3-yl)-3,4-dihydro-2H-benzo[b][1,4]oxazine]	7900 nM	15 nM	Vd/F [1]: 31.1 ± 19.3 L/kg; AUC [1]: 5560 ± 2330 ng·h/mL; CL/F [1]: 3.81 ± 0.12 mL/min/kg; half-life [1]: 3.31 ± 0.23 h; Cmax [1]: 1580 ± 601 ng/mL
COCc1nnc(N2CC(n3cc(Cl)c4cc(F)ccc43)C2)n1-c1ccc2c(c1)OCO2 [Example 3, 1-(1-(4-(Benzo[d][1,3]dioxolan-5-yl)-5-(methoxymethyl)-4H-1,2,4-triazol-3-yl)azetidin-3-yl)-3-chloro-5-fluoro-1H-indole]	7000 nM	–	–
COCc1nnc(N2CC(N3CCCc4cc(F)ccc43)C2)n1-c1ccc2c(c1)OCO2 [Example 28, 1-(1-(4-(Benzo[d][1,3]dioxolan-5-yl)-5-(methoxymethyl)-4H-1,2,4-triazol-3-yl)azetidin-3-yl)-6-fluoro-1,2,3,4-tetrahydroquinoline]	2400 nM	231 nM	–
COCc1nnc(N2CC(N3CCCc4c(F)cccc43)C2)n1-c1ccc(OC)nc1 [Example 19, 5-Fluoro-1-(1-(5-(methoxymethyl)-4-(6-methoxypyridin-3-yl)-4H-1,2,4-triazol-3-yl)azetidin-3-yl)-1,2,3,4-tetrahydroquinoline]	2000 nM	41 nM	–
CCOCc1nnc(N2CC(n3cc(C)c4cc(F)ccc43)C2)n1-c1ccc(OC)nc1 [Example 5, 1-(1-(5-(Ethoxymethyl)-4-(6-methoxypyridin-3-yl)-4H-1,2,4-triazol-3-yl)azetidin-3-yl)-5-fluoro-3-methyl-1H-indole]	–	188 nM	–
